# Measured values: publication PMC6222802 (Molecules : A Journal of Synthetic Chemistry and Natural …, 2018)
# Tests used:
# MCF-7 cells = assay: cells; details: Homo sapiens, MCF7, 48 h, read-out: IC50, MCF-7
# LoVo cells = assay: cells; details: Homo sapiens, 48 h, read-out: IC50, LoVo
# H22 cells [1] = assay: cells; details: Mus musculus, H22, 48 h, read-out: IC50, H22
# H22 tumor bearing mice = assay: Antitumor activity and toxicity in vivo in H22 tumor bearing mice; design: species or system KM mice; details: for tumor inhibition rate: 50 mg/kg, administered for 6 days, H22 tumor bearing mice; for toxicity, organ-to-body weight ratios (organ indexes: thymus, brain, lung, heart, liver, kidney, spleen) compared with NS: 50 and 30 mg/kg (CP 50 mg/kg); for body weight change compared with NS group: even at the dose of 50 mg/kg
# L929 cells = assay: cells; details: Mus musculus, L929, 48 h, read-out: IC50, L929
# S180 cells [2] = assay: cells; details: S-180, 48 h, read-out: IC50, S180
# H22 cells [3] = assay: Cell cycle analysis by flow cytometry (PI); type: cell-based; details: 3 μM, 48 h; for Distribution (%) G2/M: control 12.26%; for percentage of G1-phase cells: control 15.32%; for percentage of S-phase cells: control 72.42%
# Description: To determine whether the suppression of cell growth by the compounds was caused by a cell-cycle effect, we used a cell cycle analysis kit to detect the DNA content of cell nuclei.
# H22 cells were treated with 7a–7e at 3 μM at 37 °C for 48 h and then cells were harvested, centrifuged, resuspended and fixed in 70% EtOH overnight at 4 °C. The fixed cells were digested by RNase A (0.25 mg·mL^−1) at 37 °C for 30 min, and stained with PI (50 μg·mL^−1) in the dark at room temperature for 30 min. The distribution of the cell cycle was analyzed by Flow Cytometer.
# H22 cells [4] = test system: H22 cells
# S180 cells [5] = test system: S180 cells
# K562 cells = assay: cells; details: Homo sapiens, K562, 48 h, read-out: IC50, K562
SMILES,IC50 (MCF-7 cells),IC50 (LoVo cells),IC50 (H22 cells [1]),tumor inhibition rate (H22 tumor bearing mice),"toxicity, organ-to-body weight ratios (organ indexes: thymus, brain, lung, heart, liver, kidney, spleen) compared with NS (H22 tumor bearing mice)",body weight change compared with NS group (H22 tumor bearing mice),IC50 (L929 cells),IC50 (S180 cells [2]),Distribution (%) G2/M (H22 cells [3]),percentage of G1-phase cells (H22 cells [3]),percentage of S-phase cells (H22 cells [3]),SI ** selectivity index (SI) of H22 against L929 (H22 cells [4]),SI * selectivity index (SI) of S180 against L929 (S180 cells [5]),IC50 (K562 cells),"kinetics of growth inhibition, H22 (H22 cells [4])","kinetics of growth inhibition, S180 (S180 cells [5])"
COC(=O)CCC[C@@H]1[C@H]2CCCN3CCC[C@H](CN1P(=O)(Oc1ccccc1)N(CCCl)CCCl)[C@@H]23 (stereo partly shown) [Compound 7e],86.6 ± 2.67 µM,70 ± 2.78 µM,1.85 ± 0.16 µM,47.78%,induced low toxicity,did not significantly cause body weight change,139 ± 3.35 µM,3.65 ± 0.25 µM,11.75%,17.21%,71.04%,74.89,37.96,32.7 ± 2.56 µM,,
"O=P1(N(CCCl)CCCl)NCCCO1 (stereo not shown) [CP, cyclophosphamide, reference compound]",,,,72.22%,significantly increase the liver and spleen indexes,,,,,,,,,,,
COC(=O)CCC[C@@H]1[C@H]2CCCN3CCC[C@H](CN1P(=O)(Oc1ccc(OC)cc1)N(CCCl)CCCl)[C@@H]23 (stereo partly shown) [Compound 7b],38.9 ± 2.56 µM,46.2 ± 2.32 µM,2.65 ± 0.25 µM,,,,104 ± 3.2 µM,3.5 ± 0.35 µM,12.70%,15.44%,71.86%,39.36,29.80,54.5 ± 2.32 µM,,
COC(=O)CCC[C@@H]1[C@H]2CCCN3CCC[C@H](CN1P(=O)(Oc1ccc(Cl)cc1)N(CCCl)CCCl)[C@@H]23 (stereo partly shown) [Compound 7c],31.9 ± 2.45 µM,33.4 ± 2.45 µM,1.01 ± 0.08 µM,54.83%,induced low toxicity,did not significantly cause body weight change,162 ± 4.12 µM,2.02 ± 0.17 µM,6.30%,51.22%,42.48%,160.80,80.40,18.1 ± 1.34 µM,concentration-dependent and time-dependent,concentration-dependent and time-dependent
"COc1cccc2c1C(=O)c1c(O)c3c(c(O)c1C2=O)C[C@@](O)(C(=O)CO)C[C@@H]3O[C@H]1C[C@H](N)[C@H](O)[C@H](C)O1 [Dox, Doxorubicin, reference compound]",0.44 ± 0.08 µM,0.15 ± 0.02 µM,36.5 ± 2.56 µM,,,,0.23 ± 0.08 µM,29.2 ± 2.07 µM,,,,,,17.2 ± 1.78 µM,,
COC(=O)CCC[C@@H]1[C@H]2CCCN3CCC[C@H](CN1P(=O)(Oc1ccc(C)cc1)N(CCCl)CCCl)[C@@H]23 (stereo partly shown) [Compound 7a],61.2 ± 2.21 µM,62.5 ± 2.32 µM,2.17 ± 0.13 µM,46.95%,induced low toxicity,did not significantly cause body weight change,181 ± 4.56 µM,2.89 ± 0.23 µM,15.15%,32.02%,52.83%,83.10,62.51,27.1 ± 2.51 µM,,
"O=C1CCC[C@@H]2[C@H]3CCCN4CCC[C@H](CN12)[C@@H]34 [Compound 1, Sophoridine, reference compound]",> 100 µM,> 100 µM,> 100 µM,,,,> 100 µM,> 100 µM,,,,,,> 100 µM,,
COC(=O)CCC[C@@H]1[C@H]2CCCN3CCC[C@H](CN1P(=O)(Oc1ccc([N+](=O)[O-])cc1)N(CCCl)CCCl)[C@@H]23 (stereo partly shown) [Compound 7d],34.6 ± 2.21 µM,32.2 ± 2.21 µM,1.8 ± 0.12 µM,,,,105 ± 3.1 µM,2.01 ± 0.14 µM,15.66%,16.10%,68.24%,58.51,52.40,20.3 ± 2.05 µM,concentration-dependent and time-dependent,concentration-dependent and time-dependent
